Entries after “also recorded” stand apart in the source; their conditions may differ. Like-named read-outs stand apart in the source and are kept apart here.

The record followed here is patent US11547696B2, “Methods and compositions for treatment of myelodysplastic syndromes and/or acute myeloid leukemias” (Children's Hospital Medical Center, priority 2016, dated 2023).

For series [1], the system named is NFkB and interferon signaling in AML/MDS cells. Nature of the series: NFkB and interferon signaling in AML/MDS cells. The format is cell-based. The note with it: for NFkB signaling: AML cells.
Series [2] concerns TLR mediated NFkB activity. Briefly: TLR mediated NFkB activity. The format is cell-based. As to conditions: for TLR mediated NFkB signaling: AML cells.
For series [3], the system named is AML/MDS cells. Briefly: Proliferation of AML/MDS cells. The format is cell-based.
Series [4] relates to AML/MDS cells. Briefly: Clonogenic potential of AML/MDS cells. It counts as cell-based.
Series [5] has as its target T1, UBE2N (Homo sapiens, UniProt P61088).
T1 construct: endogenous in cells
T1 sequence (P61088 1-152): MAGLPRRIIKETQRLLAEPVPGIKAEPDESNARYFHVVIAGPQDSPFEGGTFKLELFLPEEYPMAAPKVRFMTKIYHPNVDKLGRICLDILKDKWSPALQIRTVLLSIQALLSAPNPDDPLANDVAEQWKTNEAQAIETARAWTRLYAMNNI
Briefly: Direct binding to UBE2N (Michael-Addition reaction). As to conditions: through a Michael-Addition reaction.

The test system of series [6] is AML cells. Briefly: Viability of AML cells. It counts as cell-based.
For series [7], the system named is MDS/AML cells. Nature of the series: Targeting MDS/AML cells in vivo.
The subject of series [8] is primary MDS stem cells. Briefly: Clonogenic potential of primary MDS stem cells. It counts as cell-based.
Series [9] deals with MOLM-13 and THP-1 cells. Briefly: DNA damage in MOLM-13 and THP-1 cells. It counts as cell-based.
The target of series [10] is T1, UBE2N. Nature of the series: UBE2N ubiquitination at Lysine (K)-92.
Series [11] concerns UBE2N active site mutant. Briefly: Inhibition of NFkB with UBE2N active site mutant. The format is cell-based.
Series [12] deals with DDB1. Briefly: DDB1 ubiquitination following UBE2N inhibition. The format is cell-based. As to conditions: following inhibition of UBE2N. From the text: (§1) To identify the molecular basis of UBE2N inhibition, Applicant performed a global ubiquitin screen for changes in ubiquitinated substrates and gene expression profiling by RNA sequencing. For the ubiquitin screen, K63 ubiquinated proteins were immunopreciptated from MDSL cells upon pharmacologic inhibition of UBE2N, followed by mass spectrometry analysis.
(§2) One substrate identified in NSC697923-treated MDSL cells by the ubiquitin screen is DDB1, a component of the CUL4-CRBN E3 ligase complex targeted by Lenalidomide (LEN). […] LEN has shown encouraging results in del(5q) MDS patients (“deletion 5q (del 5q) MDS” in which part of chromosome 5 is missing), but its effects are limited in other cytogenetic subtypes of MDS or AML. Therefore, the identification of molecular targets that can enhance or extend the use of LEN in a broader spectrum of patients is desired Applicant explored the possibility of a cooperative effect of LEN and NSC697923 on MDS/AML cells. […] As such, UBE2N is a promising target for extending the use of LEN to other subtypes of MDS/AML.

Series [13] concerns AML/MDS cells. Nature of the series: Cell cycle of AML/MDS cells. It counts as cell-based.
Series [14] has as its system AML/MDS cells. Briefly: Cell death of AML/MDS cells. It counts as cell-based.
The test system of series [15] is AML/MDS cells. Briefly: DNA damage in AML/MDS cells. It counts as cell-based.
For series [16], the system named is normal HSPC. Nature of the series: Clonogenic capacity of normal HSPC. It counts as cell-based.
For series [17], the system named is MDS/AML cells. Nature of the series: Cellular metabolic activity of MDS/AML cells. The format is cell-based.
For series [18], the system named is TRAF6. Briefly: TRAF6 protein expression. As to conditions: rescued by inhibition of the proteasome. It counts as cell-based.
The subject of series [19] is MDSL cells. Nature of the series: RNA sequencing / expression in MDSL cells. It counts as cell-based.
Excerpt: as §1

Series [20] deals with MDSL cells. Nature of the series: Global ubiquitin screen in MDSL cells. It counts as cell-based.
Excerpt: as §1

Series [21] relates to MDS/AML cell lines and patient samples. Nature of the series: Combination with lenalidomide on MDS/AML cell lines and patient samples in vitro. It counts as cell-based. The note with it: MDS/AML cells.
Excerpt: as §2

In series [22] the test system is normal CD34+ cells. Briefly: Function of normal CD34+ cells in the presence of lenalidomide. It counts as cell-based.

For `Cc1ccc(S(=O)(=O)c2ccc([N+](=O)[O-])o2)cc1` [UC65], in series [1], the NFkB signaling entry is “inhibits NFkB signaling”. For the same compound, the “TLR mediated NFkB signaling” value in series [2] is on record as “inhibits TLR mediated NFkB signaling”. The proliferation entry in series [3] (AML cells) is given as “reduces their proliferation”. For the same compound, the clonogenic potential entry in [4] (AML cells) and in [8] was “reduces their clonogenic potential” each time. Further, in [5], the “direct binding to UBE2N” value is “directly bind UBE2N”. The viability entry in series [6] is recorded as “reduces their viability”. In addition, the “effectiveness against MDS/AML cells in vivo” value in series [7] is reported as “effective against targeting MDS/AML cells in vivo”. Besides, in [9], the DNA damage entry is given as “does not cause DNA damage”. Also, the “UBE2N ubiquination at Lysine (K)-92” value in [10] was “reduces UBE2N ubiquination at Lysine (K)-92”. The “sensitivity of UBE2N active site mutant to inhibition of NFkB” value in series [11] was “less sensitive”. Besides, the DDB1 ubiquination result in series [12] is “differentially ubiquinated”.

Take `Cc1ccc(S(=O)(=O)c2ccc([N+](=O)[O-])o2)cc1` [NSC697923]: in [1] (AML/MDS cells, listed as NSC23), the “NFkB and interferon signaling” value is “inhibits NKkB and interferon signaling; also recorded: inhibits NFkB and interferon signaling”. Besides, the “TLR mediated NFkB activity” value in series [2] is given as “inhibits TLR mediated NFkB activity”. Moreover, the proliferation result in series [3] (AML/MDS cells) was “reduces proliferation”. Moreover, the clonogenic potential entry in series [4] (AML/MDS cells) is “reduces proliferation and clonogenic potential”. Also, the clonogenic capacity entry in [4] (MDSL/AML cell lines and primary cells) is given as “reduced the clonogenic capacity”. The cell cycle arrest entry in series [13] was “induced a G2/M cell cycle arrest”; in series [13] (listed as NSC23), “induces cell cycle arrest in mitosis”. The cell death result is reported as “increased cell death” in series [14] and “cell death” in series [14] (listed as NSC23). Besides, the DNA damage result in series [15] is reported as “induces DNA damage”. In addition, in [16], the “effect on normal HSPC (clonogenic capacity)” value is “not significantly affecting normal HSPC”. Moreover, the cellular metabolic activity entry in series [17] is “reduced the cellular metabolic activity”. Moreover, the TRAF6 protein expression entry in series [18] was “dramatic loss of TRAF6 protein expression”. Also, the “expression of APC/CDC20 substrates (i.e., cyclin B1)” value in [19] is recorded as “increased expression of APC/CDC20 substrates”. The “gene expression changes by RNA sequencing” value in [19] (MDSL cells) was “expression changes in genes involved in mRNA processing, cell cycle, and glycolysis”. Besides, the protein ubiquination entry in series [20] is “Differential protein ubiquination”.

In the case of `Cc1ccc(S(=O)(=O)/C=C/C#N)cc1` [UC64], the NFkB signaling entry in series [1] is given as “inhibits NFkB signaling”. Further, the “TLR mediated NFkB signaling” value in [2] is “inhibits TLR mediated NFkB signaling”. Further, in series [3] (AML cells), the proliferation result was “reduces their proliferation”. For the same compound, in series [4] (AML cells), the clonogenic potential result is given as “reduces their clonogenic potential”. The “direct binding to UBE2N” value in series [5] is listed as “directly bind UBE2N”. Besides, the viability result in series [6] is “reduces their viability”. Further, in [9], the DNA damage result is “does not cause DNA damage”. The “UBE2N ubiquination at Lysine (K)-92” value in series [10] is “reduces UBE2N ubiquination at Lysine (K)-92”. The “sensitivity of UBE2N active site mutant to inhibition of NFkB” value in [11] is given as “less sensitive”. For the same compound, in series [12], the DDB1 ubiquination result is on record as “differentially ubiquinated”.

On to `Nc1cccc2c1CN(C1CCC(=O)NC1=O)C2=O` (stereo not shown) [lenalidomide], for which, in [21], the “cytotoxic effects of lenalidomide with UBE2N inhibition” value is “enhances the cytotoxic effects”. In series [22], the “function of normal CD34+ cells with UBE2N inhibition in the presence of lenalidomide” value is reported as “does not affect the function of normal CD34+ cells”.
